Read-outs that look alike come from different tables or passages of the source.
Tested on: NLRP3
Assay: IL-1β secretion assay in PMA-differentiated, LPS/nigericin-stimulated THP-1 cells (384-well, ELISA read-out)
Type: cell-based, human
Method in brief: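 THP-1 cells differentiated with PMA (5 ng/mL, 40 h), primed in serum-free medium with 25 ng/mL LPS for 2 h, treated with compounds 1 h (0.5% DMSO), then stimulated with nigericin for 2 h at 37 °C. Supernatant IL-1β measured by ELISA; responses normalized to LPS+5 μM nigericin and LPS-only controls.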

[1] = Homo sapiens, THP-1, IL-1β secretion, PMA-differentiated THP-1 cells, LPS then nigericin stimulation, ELISA read at 450 nm, read-out: Activity
[2] = Homo sapiens, THP-1, Table 4, IL-1β secretion, LPS/nigericin-stimulated THP-1 cells, read-out: IC50
[3] = Table 4, IL-1β secretion, LPS/nigericin-stimulated THP-1 cells, read-out: IC50

O=C(CN1CC2(CCCC2)c2cc(Br)ccc2C1=O)Nc1ncccn1 [Example 75, 2-(6-bromo-1-oxo-spiro[3H-isoquinoline-4,1′-cyclopentane]-2-yl)-N-pyrimidin-2-yl-acetamide]
IC50 [1]: 10 to 15 µM | IC50 [2]: 12.3 µM

O=C(CN1C[C@@]2(C[C@@H]2F)c2c(ccc(Br)c2F)C1=O)Nc1ncccn1 (single isomer, unassigned) [Example 224, 2-[(2′s,4r)-6-bromo-2′,5-difluoro-1-oxospiro[3H-isoquinoline-4,1′-cyclopropane]-2-yl]-N-pyrimidin-2-ylacetamide]
IC50 [1]: < 10 µM | IC50 [2]: 0.049 µM

O=C(CN1CC2(CC2)c2cc([C@@]3(F)C[C@H]3C(F)(F)F)ccc2C1=O)Nc1ncc(F)cn1 [Example 404, N-(5-fluoropyrimidin-2-yl)-2-[6-[(1r,2r)-1-fluoro-2-(trifluoromethyl)cyclopropyl]-1-oxospiro[3H-isoquinoline-4,1′-cyclopropane]-2-yl]acetamide]
IC50 [2]: 3.89 µM

O=C(CN1CC2(CC2)c2c(ccc(C3C[C@@H]3F)c2F)C1=O)Nc1ncc(F)cn1 (single isomer, unassigned) [Example 306, 2-[5-fluoro-6-[(1r,2s)-2-fluorocyclopropyl]-1-oxospiro[3H-isoquinoline-4,1′-cyclopropane]-2-yl]-N-(5-fluoropyrimidin-2-yl)acetamide]
IC50 [3]: 0.577 µM

N#Cc1cnc(NC(=O)CN2CC3(CC3)c3cc(Br)ccc3C2=O)nc1 [Example 3]
IC50 [1]: < 10 µM | IC50 [2]: 0.047 µM

O=C(CN1C[C@]2(C[C@H]2F)c2cc(C3CC3)ccc2C1=O)Nc1ncc(F)cn1 [Example 231]
IC50 [1]: < 10 µM | IC50 [2]: 0.05 µM

O=C(CN1CC2(CC2)c2cc(Br)ccc2C1=O)Nc1ccnnc1 [Example 410, 2-(6-bromo-1-oxospiro[3H-isoquinoline-4,1′-cyclopropane]-2-yl)-N-pyridazin-4-ylacetamide]
IC50 [2]: 1.52 µM

Cc1cnc(NC(=O)CN2CC3(CC3)c3cc(Br)ccc3C2=O)c(F)c1 [Example 396, 2-(6-bromo-1-oxospiro[3H-isoquinoline-4,1′-cyclopropane]-2-yl)-N-(3-fluoro-5-methylpyridin-2-yl)acetamide]
IC50 [2]: 1.6 µM

O=C(CN1CC2(CC2)c2cc(Br)ccc2C1=O)Nc1nc2cnccc2o1 [Example 210, 2-(6-bromo-1-oxo-spiro[3H-isoquinoline-4,1′-cyclopropane]-2-yl)-N-oxazolo[4,5-c]pyridin-2-yl-acetamide]
IC50 [1]: < 10 µM | IC50 [2]: 0.822 µM

N#Cc1cnc(NC(=O)CN2CC3(CC3(F)F)c3c(ccc(Br)c3F)C2=O)nc1 (single isomer, unassigned) [Example 319, 2-[6-bromo-1′,1′,5-trifluoro-1-oxospiro[3H-isoquinoline-4,2′-cyclopropane]-2-yl]-N-(5-cyanopyrimidin-2-yl)acetamide]
IC50 [3]: 3.05 µM

O=C(CN1CC2(CC2)c2cc(Br)ccc2C1=O)Nc1ncn(-c2ccccc2)n1 [Example 413, 2-(6-bromo-1-oxospiro[3H-isoquinoline-4,1′-cyclopropane]-2-yl)-N-(1-phenyl-1,2,4-triazol-3-yl)acetamide]
IC50 [2]: 2.02 µM

Cc1noc(NC(=O)CN2CC3(CC3)c3cc(Br)ccc3C2=O)c1C [Example 115, 2-(6-bromo-1-oxospiro[3H-isoquinoline-4,1′-cyclopropane]-2-yl)-N-(3,4-dimethyl-1,2-oxazol-5-yl)acetamide]
IC50 [1]: > 15 µM | IC50 [2]: 15.4 µM

O=C(CN1CC2(CC2)c2cc(Br)ccc2C1=O)Nc1ccc(OC(F)F)cn1 [Example 36, 2-(6-bromo-1-oxo-spiro[3H-isoquinoline-4,1′-cyclopropane]-2-yl)-N-[5-(difluoromethoxy)-2-pyridyl]acetamide]
IC50 [1]: < 10 µM | IC50 [2]: 2.72 µM

N#Cc1ccc2c(c1)C1(CC1)CN(CC(=O)Nc1ncc(F)cn1)C2=O [Example 177, 2-(6-cyano-1-oxospiro[3H-isoquinoline-4,1′-cyclopropane]-2-yl)-N-(5-fluoropyrimidin-2-yl)acetamide]
IC50 [1]: < 10 µM | IC50 [2]: 4.41 µM

O=C(CN1CC2(CC2)c2cc(Br)ccc2C1=O)Nc1ncc(C2CCCO2)cn1 (stereo not drawn) [Example 359, 2-(6-bromo-1-oxospiro[3H-isoquinoline-4,1′-cyclopropane]-2-yl)-N-[5-(oxolan-2-yl)pyrimidin-2-yl]acetamide]
IC50 [2]: 0.603 µM

Cn1cc(NC(=O)CN2CC3(CC3)c3cc(Br)ccc3C2=O)ccc1=O [Example 73, 2-(6-bromo-1-oxo-spiro[3H-isoquinoline-4,1′-cyclopropane]-2-yl)-N-(1-methyl-6-oxo-3-pyridyl)acetamide]
IC50 [1]: 10 to 15 µM | IC50 [2]: 11.5 µM

O=C(CN1CC2(CC2)c2cc(Br)ccc2C1=O)Nc1ncc(-c2ccccn2)cn1 [Example 104, 2-(6-bromo-1-oxospiro[3H-isoquinoline-4,1′-cyclopropane]-2-yl)-N-(5-pyridin-2-ylpyrimidin-2-yl)acetamide]
IC50 [1]: < 10 µM | IC50 [2]: 1.87 µM

O=C(CN1CC2(CC2)c2cc(Br)ccc2C1=O)Nc1ncc(F)s1 [Example 163, 2-(6-bromo-1-oxospiro[3H-isoquinoline-4,1′-cyclopropane]-2-yl)-N-(5-fluoro-1,3-thiazol-2-yl)acetamide]
IC50 [1]: < 10 µM | IC50 [2]: 6.66 µM

O=C(CN1CC2(CC2)c2cc(Br)ccc2C1=O)Nc1ncc(C2CCC2)cn1 [Example 256, 2-(6-bromo-1-oxospiro[3H-isoquinoline-4,1′-cyclopropane]-2-yl)-N-(5-cyclobutylpyrimidin-2-yl)acetamide]
IC50 [1]: < 10 µM | IC50 [2]: 0.395 µM

O=C(CN1CC2(CC2)c2cc(Br)ccc2C1=O)NC1CCCC(O)C1 (stereo not drawn) [Example 58, 2-(6-bromo-1-oxo-spiro[3H-isoquinoline-4,1′-cyclopropane]-2-yl)-N-(3-hydroxycyclohexyl)acetamide]
IC50 [1]: < 10 µM | IC50 [2]: 3.09 µM

O=C(CN1CC2(CC2)c2cc(Br)ccc2C1=O)Nc1nccc2nccn12 [Example 363, 2-(6-bromo-1-oxospiro[3H-isoquinoline-4,1′-cyclopropane]-2-yl)-N-imidazo[1,2-c]pyrimidin-5-ylacetamide]
IC50 [2]: 6.58 µM

COC(=O)N1CCC[C@@H](NC(=O)CN2CC3(CC3)c3cc(Br)ccc3C2=O)C1 [Example 71, methyl (3R)-3-[[2-(6-bromo-1-oxo-spiro[3H-isoquinoline-4,1′-cyclopropane]-2-yl)acetyl]amino]piperidine-1-carboxylate]
IC50 [1]: < 10 µM | IC50 [2]: 6.96 µM

O=C(CN1CC2(CC2)c2cc(I)ccc2C1=O)Nc1ncc(F)cn1 [Example 90, N-(5-fluoropyrimidin-2-yl)-2-(6-iodo-1-oxospiro[3H-isoquinoline-4,1′-cyclopropane]-2-yl)acetamide]
IC50 [1]: < 10 µM | IC50 [2]: 0.034 µM

CN1CCC(NC(=O)CN2CC3(CC3)c3cc(Br)ccc3C2=O)CC1=O (stereo not drawn) [Example 22, 2-(6-bromo-1-oxo-spiro[3H-isoquinoline-4,1′-cyclopropane]-2-yl)-N-(1-methyl-2-oxo-4-piperidyl)acetamide]
IC50 [1]: 10 to 15 µM | IC50 [2]: 10.9 µM

N#Cc1c(C(F)(F)F)ccc2c1C1(CC1)CN(CC(=O)Nc1ncc(F)cn1)C2=O [Example 89, 2-[5-cyano-1-oxo-6-(trifluoromethyl)spiro[3H-isoquinoline-4,1′-cyclopropane]-2-yl]-N-(5-fluoropyrimidin-2-yl)acetamide]
IC50 [1]: < 10 µM | IC50 [2]: 6.84 µM

O=C(CN1CC2(CC2)c2cc(Br)ccc2C1=O)Nc1ccc(Cl)nn1 [Example 10]
IC50 [1]: < 10 µM | IC50 [2]: 1.3 µM

O=C(CN1CC2(CC2)c2cc(Br)ccc2C1=O)Nc1nc2c(Cl)cccn2n1 [Example 429, 2-(6-bromo-1-oxospiro[3H-isoquinoline-4,1′-cyclopropane]-2-yl)-N-(8-chloro-[1,2,4]triazolo[1,5-a]pyridin-2-yl)acetamide]
IC50 [2]: 1.66 µM

O=C(CN1CC2(CC2)c2cc(Br)ccc2C1=O)Nc1ccc2ocnc2c1 [Example 173, N-(1,3-benzoxazol-5-yl)-2-(6-bromo-1-oxospiro[3H-isoquinoline-4,1′-cyclopropane]-2-yl)acetamide]
IC50 [1]: < 10 µM | IC50 [2]: 2.3 µM

O=C(CN1CC2(CC2)c2cc(Br)ccc2C1=O)Nc1ccc2c(c1)CCO2 [Example 135, 2-(6-bromo-1-oxospiro[3H-isoquinoline-4,1′-cyclopropane]-2-yl)-N-(2,3-dihydro-1-benzofuran-5-yl)acetamide]
IC50 [1]: < 10 µM | IC50 [2]: 1.22 µM

O=C(CN1CC2(CC2)c2cc(OCF)ccc2C1=O)Nc1ncccn1 [Example 82, 2-[6-(fluoromethoxy)-1-oxospiro[3H-isoquinoline-4,1′-cyclopropane]-2-yl]-N-pyrimidin-2-ylacetamide]
IC50 [1]: < 10 µM | IC50 [2]: 2.22 µM

O=C(CN1CC2(CC2)c2cc(Br)ccc2C1=O)Nc1ncc(F)cc1F [Example 12]
IC50 [1]: < 10 µM | IC50 [2]: 0.588 µM

CCN1CCC12CC(NC(=O)CN1CC3(CC3)c3cc(Br)ccc3C1=O)C2 (stereo not drawn) [Example 393, 2-(6-bromo-1-oxospiro[3H-isoquinoline-4,1′-cyclopropane]-2-yl)-N-(1-ethyl-1-azaspiro[3.3]heptan-6-yl)acetamide]
IC50 [2]: 7.89 µM

COCOc1cnc(NC(=O)CN2CC3(CC3)c3cc(Br)ccc3C2=O)nc1 [Example 316, 2-(6-bromo-1-oxospiro[3H-isoquinoline-4,1′-cyclopropane]-2-yl)-N-[5-(methoxymethoxy)pyrimidin-2-yl]acetamide]
IC50 [2]: 0.704 µM

O=C(CN1CC2(CC2)c2cc(Br)ccc2C1=O)Nc1nc2ccccc2o1 [Example 205, N-(1,3-benzoxazol-2-yl)-2-(6-bromo-1-oxospiro[3H-isoquinoline-4,1′-cyclopropane]-2-yl)acetamide]
IC50 [1]: < 10 µM | IC50 [2]: 0.306 µM

Reference: patent US20230416205A1, “COMPOUNDS, COMPOSITIONS, AND METHODS” (Denali Therapeutics Inc, priority 2020, published 2023)
